Patent US12194026B2, “Drug for treating tinnitus” (UNIVERSITY OF SOUTH FLORIDA, priority 2018, dated 2025)
“Also recorded” adds a separate entry of the source.

Legend:
young adult CBA/CaJ mice [1] = test: Acoustic startle reflex (ASR) amplitude, startle input-output function, salicylate (SS) tinnitus model
Procedure: (§1) SS can be administrated 2 hours before measuring the behavioral manifestations of tinnitus.
(§2) Behavioral assay: The presence of tinnitus may be indicated by a failure to respond to silence embedded in sound stimuli near the tinnitus frequency. A sound pulse-evoked acoustic startle reflex (ASR) is commonly used to determine if an animal can detect silent gaps in narrow-band noise and this method appears to detect tinnitus in humans. Failure of a first sound pulse to suppress a second sound pulse-evoked startle reflex is indicative of tinnitus. This ASR assay has a similar sensitivity for changes in gap detection to a behavioral conditioning paradigm in which animals are trained to response to gaps in noise. Elevations in the ASR amplitude have been linked to the presence of hyperacusis, a disorder often comorbid with tinnitus. Thus, the assay probed possible influences of BK channel function on both tinnitus and hyperacusis.
(§3) General Procedure. Mice underwent sequential assessment of the effect of treatment (baseline; sodium salicylate; sodium salicylate with BMS-191011). Baseline measures were acquired before sodium salicylate (SS) administration so that mice served as their own controls. Tinnitus was induced transiently by intraperitoneal (i.p.) injection of 250 mg/kg SS (concentration: 25 mg/mL 0.9% saline). SS induces tinnitus in humans, and SS-treated animals share markers of tinnitus with humans. Behavioral or neurophysiological manifestations of tinnitus were assessed 2 hours following SS injection, and were completed within 3.5 hours. Jastreboff et al. reported that after an i.p. injection of SS in rats, the maximum levels in blood serum occurred 1.5 hours later, while the maximum levels in the perilymph and spinal fluid reached maximum levels within 2-4 hours. However, behavioral manifestations of tinnitus are observed up to 48 hours following administration (cite). […]
Behavioral Assays. Behavioral assessment were performed as described previously (Longenecker and Galazyuk, 2011; Lowe and Walton, 2015), and as briefly outlined below. The animals were acclimated to the testing room by placing the home cage in the testing room 30 min prior to testing. The acoustic startle response (ASR), a transient motor response to a startle eliciting stimulus (SES), was converted to voltage by placing mice on a custom-built platform connected to piezoelectric transducers located inside a sound attenuated chamber. SESs were 20-ms Gaussian broadband noise bursts (1-ms rise/fall time), filtered at 500 Hz-40 kHz. To measure threshold and amplitude of the ASR, the intensity of the SES was varied between 55-115 dB SPL. Ten trials were run for each stimulus in order to acquire the startle input-output function.

young adult CBA/CaJ mice [2] = test: Gap pre-pulse inhibition of the acoustic startle (GPIAS), Gap-PPI, SS-induced tinnitus
Procedure: as §1, §2, §3
Modification of the ASR by stimuli placed before the SES is typically observed as a reduction in startle amplitude or pre-pulse inhibition (Hoffman and Ison, 1980; Ison and Hoffman, 1983). To probe the tinnitus percept (Longenecker and Galazyuk, 2012; Turner, 2007), Turner and colleagues used a relatively long silent gap imbedded in an ongoing narrow band noise (NBN) placed before the SES; various center frequencies of the NBN were used. The paradigm as a whole is referred to as the gap pre-pulse inhibition of the acoustic startle (GPIAS). The silent gap is demonstrably perceived; but, if the tinnitus pitch is in the region of the pitch of the ongoing NBN, the animal will presumably be impaired at detecting the gap (Turner, et al 2007). The presence of tinnitus is then indicated by a reduction in pre-pulse inhibition to the gap stimulus, or Gap-PPI, when the gap carrier pitch is near the tinnitus frequency (Turner, 2007). To perform the GPIAS assay, in this study the SES (presented at 100 dB SPL) was preceded by a 150-ms, 70-dB narrow band noise (⅓ octave) centered at 6, 12, 16, 20, or 24 kHz. During gap trials, a 50-ms silent gap was inserted 100 ms before the SES. Ten trials of each stimulus were presented to obtain the Gap PPI function.

CBA/CaJ mice = test: Auditory brainstem response (ABR) recordings before and after SS
Procedure: General Procedure. Mice underwent sequential assessment of the effect of treatment (baseline; sodium salicylate; sodium salicylate with BMS-191011). Baseline measures were acquired before sodium salicylate (SS) administration so that mice served as their own controls. Tinnitus was induced transiently by intraperitoneal (i.p.) injection of 250 mg/kg SS (concentration: 25 mg/mL 0.9% saline). SS induces tinnitus in humans, and SS-treated animals share markers of tinnitus with humans. Behavioral or neurophysiological manifestations of tinnitus were assessed 2 hours following SS injection, and were completed within 3.5 hours. Jastreboff et al. reported that after an i.p. injection of SS in rats, the maximum levels in blood serum occurred 1.5 hours later, while the maximum levels in the perilymph and spinal fluid reached maximum levels within 2-4 hours. However, behavioral manifestations of tinnitus are observed up to 48 hours following administration (cite). BMS-191011 (Sigma Aldrich) was administered i.p. (0.5 mg/kg) or topically (1 μL of 1-10 μM) at the dura over the auditory midbrain.
ABR Assays. To obtain an electrophysiological measure of auditory evoked activity in the auditory nerve and brainstem, ABR assays were performed as described previously (Longenecker and Galazyuk, 2011; Lowe and Walton, 2015), and as briefly outlined below. Animals were anesthetized with i.p. administration of ketamine (120 mg/kg) and xylazine (10 mg/kg). Respiration was monitored during testing and used to guide administration of supplemental anesthesia. Body temperature was kept constant at 37° C. using a feedback-controlled heating pad (Physitemp TCAT2-LV Controller, Clifton, NJ).
ABRs were recorded using BioSig software in a soundproof booth lined with echo-attenuating acoustic foam. ABRs were evoked by 256 tone burst stimuli. Tone bursts were 3 msec in duration (1-ms rise/fall time, alternating polarity) presented at 6, 12, 16, 20, 24, and 36 kHz at a rate of 29 per second, attenuated in 5 dB steps from 80 dB SPL to 15 dB below threshold or 5 dB SPL, whichever was lower. Threshold was determined by visual inspection as the lowest intensity level which produced a defined peak in two replicates. Peaks 1-5 (P1-5) were detected and measured in the ABR waveforms using custom designed MATLAB software.

IC of awake CBA/CaJ mice = test: Multi-channel neurophysiological recordings in the inferior colliculus (IC, auditory midbrain); format: in vivo, mouse
Procedure: IC neurophysiological recordings. Surgery and extracellular recordings were collected and analyzed by a method identical to a procedure used in a previous study. The right IC was located stereotaxically and exposed via a small (<1.0 mm) craniotomy. Prior to recording, chlorprothixene (Taractin®, 5-12 μl/g i.m.) was administered to prevent involuntary movement via inhibition of parasympathetic nerve impulses. The animal was then secured in a custom stereotaxic frame (Newport-Klinger) in a heated (34° C.) chamber lined with sound-absorbing foam (Sonex®). Multi-unit extracellular activity was recorded using vertically oriented single shank silicon acute penetrating 16-channel electrodes with an impedance ranging from 1.2 to 2.1 MΩ (Type-A, 3 mm×100 μm; NeuroNexus Technologies). Excitatory frequency response areas (eFRAs) from all active channels were acquired simultaneously using 2 to 64 kHz, 25 ms (5 ms rise/fall) tone burst stimuli presented at 0 to 80 dB SPL in 5 dB steps. A total of 2125 frequency and intensity combinations were presented pseudo-randomly five times each at a rate of 10/s. The change in the driven response due to treatment was assessed via maximum number of spikes per stimulus within the boundary of each eFRA.

BK channel = BK channel (Homo sapiens, UniProt Q12791); settings: relative to Maxipost; cited from earlier work
[3] = in vivo; cited from earlier work
animals = settings: cited from earlier work
[4] = cited from earlier work
[5] = BMS-191011 after SS, 12, 16, 20, 24 kHz tones
[6] = BMS-191011 after SS, 60 dB tones
[7] = SS 250 mg/kg i.p., 12-20 kHz stimuli
[8] = rats, after i.p. injection, Jastreboff et al.

BK channel, sequence (Q12791 whole entry, species assumed): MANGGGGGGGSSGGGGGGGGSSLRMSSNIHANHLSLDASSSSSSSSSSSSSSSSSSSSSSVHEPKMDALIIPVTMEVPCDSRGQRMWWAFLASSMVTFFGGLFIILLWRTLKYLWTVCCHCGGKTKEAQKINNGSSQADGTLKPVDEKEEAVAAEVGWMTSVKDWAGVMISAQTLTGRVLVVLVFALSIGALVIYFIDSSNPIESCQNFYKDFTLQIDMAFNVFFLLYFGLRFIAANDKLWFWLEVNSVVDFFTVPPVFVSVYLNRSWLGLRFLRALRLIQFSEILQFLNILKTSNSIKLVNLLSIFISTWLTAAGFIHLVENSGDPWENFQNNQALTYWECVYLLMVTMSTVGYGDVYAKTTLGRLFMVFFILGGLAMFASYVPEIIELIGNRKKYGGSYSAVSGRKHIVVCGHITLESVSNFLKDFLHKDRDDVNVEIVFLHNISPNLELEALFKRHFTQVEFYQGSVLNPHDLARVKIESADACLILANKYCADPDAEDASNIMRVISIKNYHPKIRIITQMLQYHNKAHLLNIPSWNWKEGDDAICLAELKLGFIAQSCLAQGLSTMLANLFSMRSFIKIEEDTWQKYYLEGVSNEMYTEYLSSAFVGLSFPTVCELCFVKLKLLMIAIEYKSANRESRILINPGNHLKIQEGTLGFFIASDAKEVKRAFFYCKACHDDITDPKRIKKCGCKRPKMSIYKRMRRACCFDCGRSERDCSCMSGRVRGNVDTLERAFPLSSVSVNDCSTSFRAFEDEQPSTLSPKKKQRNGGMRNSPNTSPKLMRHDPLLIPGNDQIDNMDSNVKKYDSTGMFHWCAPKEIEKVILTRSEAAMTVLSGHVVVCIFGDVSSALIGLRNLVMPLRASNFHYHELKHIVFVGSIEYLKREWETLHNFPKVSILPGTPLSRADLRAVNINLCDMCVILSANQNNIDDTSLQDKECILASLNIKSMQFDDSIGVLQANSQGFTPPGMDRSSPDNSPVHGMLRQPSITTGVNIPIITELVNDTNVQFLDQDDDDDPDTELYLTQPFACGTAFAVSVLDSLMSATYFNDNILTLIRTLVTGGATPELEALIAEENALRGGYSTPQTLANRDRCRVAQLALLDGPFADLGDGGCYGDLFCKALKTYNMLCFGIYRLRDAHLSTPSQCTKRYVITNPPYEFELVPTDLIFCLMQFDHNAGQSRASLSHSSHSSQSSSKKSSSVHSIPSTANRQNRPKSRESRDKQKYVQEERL

O=c1oc(-c2ccc(C(F)(F)F)cc2)nn1Cc1cc(Cl)ccc1O [BMS-191011, 3-[(5-chloro-2-hydroxyphenyl)methyl]-5-[4-(trifluoromethyl)phenyl]-1,3,4-oxadiazol-2(3H)-one]
ASR amplitude after SS treatment (young adult CBA/CaJ mice [1]; Example 1, mouse model, SS 2 hours before, BMS191011 i.p. 5 mg/kg): did not appear to return this toward baseline
SS-induced increase in startle amplitude intensity-response function (young adult CBA/CaJ mice [1]; Example 2, BMS-191011 i.p. after SS 250 mg/kg, 1 hour before testing, N=6): did not reverse the effects of SS administration; also recorded: not significantly altered
startle amplitudes, compound administered alone (young adult CBA/CaJ mice [1]; Example 2, without SS): did not alter startle amplitudes
Gap-PPI for stimuli within the tinnitus percept (young adult CBA/CaJ mice [2]; Example 1, 16 kHz region, after SS, BMS191011 i.p. 5 mg/kg): returned Gap-PPI to baseline levels
% Gap PPI, 12-20 kHz carriers (young adult CBA/CaJ mice [2]; Example 2, BMS-191011 after SS 250 mg/kg, N=6): returned SS-suppressed Gap-PPIs to baseline levels
Gap-PPI, 24 kHz carrier (young adult CBA/CaJ mice [2]; Example 2, BMS-191011 after SS, outside expected tinnitus range): no effect on Gap-PPI
Gap-PPI functions, compound administered alone (young adult CBA/CaJ mice [2]; Example 2, without SS): not significantly altered from baseline
effect of SS on ABR P2 amplitudes (CBA/CaJ mice; BMS-191011 after SS): did not substantively alter; also recorded: did not significantly alter the effect of SS treatment
effect of SS on ABR P4 amplitudes (CBA/CaJ mice; BMS-191011 after SS): did not substantively alter; also recorded: did not significantly alter the effect of SS treatment
SS-induced ABR threshold shift (CBA/CaJ mice; BMS-191011 after SS, 1 hour before ABR recordings): did not significantly alter; also recorded: not further altered
SS-induced decrease in ABR P1 amplitudes (CBA/CaJ mice; [5]): did not significantly alter the effect of SS treatment
SS-induced shift in ABR P1 latencies (CBA/CaJ mice; [5]): did not significantly alter; also recorded: minimally altered the effect of SS treatment
SS-increased P2/P1 amplitude ratio (CBA/CaJ mice; [6]): did not substantively alter; also recorded: unaltered
SS-increased P4/P1 amplitude ratio (CBA/CaJ mice; [6]): unaltered
sound-evoked activity in the IC (IC of awake CBA/CaJ mice; Example 1, control mice, local administration (topical application over the dura)): suppressed sound-evoked activity
spontaneous activity (spontaneous spikes per 25 ms) (IC of awake CBA/CaJ mice; mice not given SS, topical 1 μL of 1-10 μM): remained unchanged; also recorded: no significant change
reduction of sound-evoked activity (maximum number of spikes evoked by a tone) (IC of awake CBA/CaJ mice; mice not given SS, topical 1 μL of 1-10 μM, hours 2-4 after treatment): ~50%
time after administration by which suppression of sound-evoked activity (maximal spikes per 25 ms stimulus) is significant (IC of awake CBA/CaJ mice; mice not given SS, topical at the dura, 1 μL of a 1-10 μM solution): ≤ 1 h
affinity and specificity for the BK channel compared with Maxipost (BK channel): higher affinity and specificity
brain availability [3]: high brain-availability
cardiac effects (heart rate, blood pressure) (animals; animals): without signs of negative cardiac effects
tolerability in animals (animals; in vivo): well-tolerated

O=C([O-])c1ccccc1O.[Na+] [SS, sodium salicylate]
startle amplitude intensity-response function relative to baseline (young adult CBA/CaJ mice [1]; SS 250 mg/kg i.p. alone): increased the intensity-response function; also recorded: significant increase in startle amplitude
Gap-PPI relative to baseline, 12-20 kHz carrier (young adult CBA/CaJ mice [2]; SS 250 mg/kg i.p. alone): reduced Gap-PPI; also recorded: significant decrease in % Gap PPI
Gap-PPI, 24 kHz carrier (young adult CBA/CaJ mice [2]; SS 250 mg/kg i.p. alone): did not influence Gap-PPI
ABR P1 amplitudes relative to baseline (CBA/CaJ mice; SS 250 mg/kg i.p.): significantly reduced P1 amplitudes
ABR P1 latencies relative to baseline (CBA/CaJ mice; SS 250 mg/kg i.p.): longer P1 latencies; also recorded: significantly delayed P1 latencies
P2/P1 amplitude ratio relative to baseline (CBA/CaJ mice; [7]): substantially increased; also recorded: significantly increased the P2/P1 ratio
P4/P1 amplitude ratio relative to baseline (CBA/CaJ mice; [7]): still increased; also recorded: significantly increased the P4/P1 ratio
ABR P2 amplitude relative to baseline (CBA/CaJ mice; SS 250 mg/kg i.p., 12-20 kHz, higher intensities (60-80 dB SPL)): either increased or stayed the same; also recorded: increased P2 amplitude at 80 dB
increase in ABR thresholds (CBA/CaJ mice; SS 250 mg/kg i.p., across the frequency spectrum): ~20 dB
time for which behavioral manifestations of tinnitus are observed after administration ([4]; following administration): up to 48 hours
time of maximum levels in blood serum [4, 8]: 1.5 h
time of maximum levels in perilymph and spinal fluid [4, 8]: 2 to 4 h
